In patent US20240279232A1, “USE OF SUBSTITUTED 5-(4-METHYL-6-PHENYL-4H-BENZO[F]IMIDAZO[1,5-A][1,4] DIAZEPIN-3-YL)-1,2,4-O[…] THE TREATMENT OF INFLAMMATORY CONDITIONS” (priority 2021, published 2024):

Columns and labels:
iNOS protein = assay: iNOS ELISA in activated microglia; format: cell-based, mouse; details: 10 μM, 24 h treatment, vs vehicle
Protocol: Mouse microglia were activated with IFNγ/LPS and treated with vehicle or 10 μM GL-IV-03. mRNA was isolated after 15 min, 1 h, 3 h and 6 h and iNOS was quantified using RT-qPCR. Cycle numbers for each sample were normalized to GAPDH using the ΔCt method (n=3). Mouse microglia were activated with IFNγ/LPS and treated with vehicle or 10 μM GL-IV-03 for 24 h. Cellular protein was extracted and analyzed with the mouse iNOS ELISA kit from Abcam (n=3). *, (p<0.05), ** (p<0.01) or *** (p<0.001) significance was calculate with ANOVA.
iNOS ELISA. Mouse microglia (2 mL of 500,000 cells/mL cell solution) were activated with 50 ng/mL LPS (Invivogen, NC9836) and 150 U/mL IFNγ (R&D Systems, 485M1100), and treated with compounds of interest in 6 well plates (VWR, 10062-892) for 24 hours. […] Cells were lysed with RIPA buffer and protein concentration quantified with the Pierce Rapid Gold BCA Protein Assay Kit (Thermo Scientific, A53227). Samples at 50 μg/mL were analyzed with the Mouse iNOS ELISA kit (ABCAM, ab253219). Absorbance (λ: 450 nm) was measured using a TECAN Infinite M1000 plate reader. Each measurement was carried with an n=3 and significance analyzed by ANOVA.

iNOS = iNOS activity in activated microglia after compound treatment; format: cell-based, mouse; details: 50 μM, treatment for 24 h
Protocol: The cellular proteins were isolated from mouse microglia treated with vehicle and mouse microglia activated with IFNγ/LPS and treated for 24 hours with vehicle or 50 μM MP-IV-010. The specific iNOS activity was determined with an Abcam INOS Activity Assay kit (n=4).
Next, the possible involvement of INOS in MP-IV-010 (and structurally similar compound GL-IV-03) mediated reduction of NO in activated microglia was investigated. INOS activity was measured in activated microglia after a 24-hour treatment with MP-IV-010. Second, proteins were harvested from microglia activated for 24 hours with LPS/INFγ, followed by a 2-hour treatment with MP-IV-010 before measuring iNOS activity. Finally, mRNA and protein levels were quantified for GL-IV-03 treated activated microglia to examine the transcriptional regulation of iNOS.
iNOS activity assay. Mouse microglia were activated with 50 ng/mL LPS (Invivogen, NC9836) and 150 U/mL IFNγ (R&D Systems, 485MI100), and treated with compounds of interest in 6 well plates for 2 or 24 hours. […] Protein was collected, quantified, and analyzed with the Nitric Oxide Synthase Activity kit (Abcam, ab211083) with minor alterations to the established protocol. […] Absorbance at 540 nm was measured using a TECAN Infinite M1000 plate reader. Significance (n=3) was analyzed by ANOVA.

| SMILES | amount of iNOS protein (iNOS protein) | iNOS activity in activated microglia (iNOS) |
| --- | --- | --- |
| CCc1noc(-c2ncn3c2[C@@H](C)N=C(c2ccccc2F)c2cc(C4CC4)ccc2-3)n1 [GL-IV-03, (R)-5-(8-Cyclopropyl-6-(2-fluorophenyl)-4-methyl-4H-benzo[f]imidazo[1,5-a][1,4]diazepin-3-yl)-3-ethyl-1,2,4-oxadiazole] | significantly lower | – |
| C#Cc1ccc2c(c1)C(c1ccccc1F)=N[C@H](C)c1c(-c3nc(C(C)C)no3)ncn1-2 [MP-IV-010, (R)-5-(8-ethynyl-6-(2-fluorophenyl)-4-methyl-4H-benzo[f]imidazo[1,5-a][1,4]diazepin-3-yl)-3-isopropyl-1,2,4-oxadiazole] | – | completely inhibited |
